Structures can show the parent of a compound that is named as a salt.
Assays:
[1] = molecular target: T1, rat α2B (RNG gene) receptor (Rattus norvegicus, UniProt P19328); experiment: RSAT (Receptor Selection and Amplification Technology) assay, alpha 2B; assay type: cell-based; details: ratio of maximal effect to that of standard full agonist oxymetazoline
T1 construct: expressed in transfected cells; host or cells: NIH-3T3 cells, calcium phosphate cotransfection
T1 sequence (P19328 1-453): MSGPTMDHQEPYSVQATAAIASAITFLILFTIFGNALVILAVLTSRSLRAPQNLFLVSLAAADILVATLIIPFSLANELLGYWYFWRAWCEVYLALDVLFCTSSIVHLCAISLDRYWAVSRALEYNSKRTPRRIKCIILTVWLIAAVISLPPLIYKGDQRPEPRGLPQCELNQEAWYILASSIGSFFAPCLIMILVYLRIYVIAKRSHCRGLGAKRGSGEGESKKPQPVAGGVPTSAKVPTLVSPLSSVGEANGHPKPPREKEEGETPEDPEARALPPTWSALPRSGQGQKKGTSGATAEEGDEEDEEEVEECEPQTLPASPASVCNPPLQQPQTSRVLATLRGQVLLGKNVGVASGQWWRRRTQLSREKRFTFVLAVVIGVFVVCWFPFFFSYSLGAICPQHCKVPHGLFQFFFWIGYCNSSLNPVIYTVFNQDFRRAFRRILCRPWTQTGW
Source text: This preferential activity can be determined in a variety of functional assays such as Cyclic AMP Production, Shimizu et al, J. Neurochem. […] In the study below, the RSAT assay on cells that have been transiently transfected with the human α2A (c10 gene), rat α2B (RNG gene) and human α2C (c4 gene) receptors was used.
The assay measures a receptor-mediated loss of contact inhibition that results in selective proliferation of receptor-containing cells in a mixed population of confluent cells. The increase in cell number is assessed with an appropriate transfected marker gene such as b-galactosidase, the activity of which can be easily measured in a 96-well format. Receptors that activate the G protein, Gq, elicit this response. Alpha2 receptors, which normally couple to Gi, activate the RSAT response when coexpressed with a hybrid Gq protein that has a Gi receptor recognition domain, called Gq/i5^2.
NIH-3T3 cells are plated at a density of 2×10^6 cells in 15 cm dishes and maintained in Dulbecco's modified Eagle's medium supplemented with 10% calf serum. One day later, cells are cotransfected by calcium phosphate precipitation with mammalian expression plasmids encoding p-SV-b-galactosidase (5-10 mg), receptor (1-2 mg) and G protein (1-2 mg). 40 mg salmon sperm DNA may also be included in the transfection mixture. Fresh media is added on the following day and 1-2 days later, cells are harvested and frozen in 50 assay aliquots. Cells are thawed and 100 ml added to […] aliquots of various concentrations of drugs in triplicate in 96-well dishes. Incubations continue 72-96 hr at 37°. After washing with phosphate-buffered saline, b-galactosidase enzyme activity is determined by adding 200 ml of the chromogenic substrate (consisting of 3.5 mM o-nitrophenyl-b-D-galactopyranoside and 0.5% nonidet P-40 in phosphate buffered saline), incubating overnight at 30° and measuring optical density at 420 nm. The absorbence is a measure of enzyme activity, which depends on cell number and reflects a receptor-mediated cell proliferation. The EC50 and maximal effect of each drug at each alpha2 receptor is determined. The efficacy or intrinsic activity is calculated as a ratio of the maximal effect of the drug to the maximal effect of a standard full agonist for each receptor subtype.

[2] = system: conscious cynomolgus monkeys; experiment: Cardiovascular side effects (blood pressure, heart rate) after i.v. administration; assay type: in vivo, cynomolgus monkey; details: for Maximum % Decrease From Pretreatment Levels, Heart Rate / Maximum % Decrease From Pretreatment Levels, Mean Arterial Blood Pressure: up to 6 hours, + with * = increase from base levels
Source text: Cardiovascular measurements were made in a different group of monkeys using a BP 100S automated sphygmomanometer (Nippon Colin,. Japan).

With `Cc1ccsc1Cc1cnc[nH]1` [4(5)-(3-methyl-thiophen-2-ylmethyl)-1H-imidazole, reference compound] the “Intrinsic Activity Relative to Oxymetazoline, Alpha 2B” value [1] was 1.4, the “Maximum % Decrease From Pretreatment Levels, Heart Rate” value ([2]; i.v. 50 μg/kg) was 23 ± 4% and the “Maximum % Decrease From Pretreatment Levels, Mean Arterial Blood Pressure” value ([2]; i.v. 50 μg/kg) was 9 ± 3%. The “Maximum % Decrease From Pretreatment Levels, Heart Rate” value ([2]; i.v. 167 μg/kg) was 32 ± 8%, the “Maximum % Decrease From Pretreatment Levels, Mean Arterial Blood Pressure” value ([2]; i.v. 167 μg/kg) was 8 ± 6% and the “effect on heart rate (in words)” value ([2]; intravenous administration, monkeys) was “weak effect on heart rate”.

With `O=C1c2ccccc2OCC1Cc1c[nH]cn1` (stereo not shown) [Example B-2b, 3-(1H-imidazol-4(5)-ylmethyl)chroman-4-one] the “Intrinsic Activity Relative to Oxymetazoline, Alpha 2B” value [1] was 0.77, the “Maximum % Decrease From Pretreatment Levels, Heart Rate” value ([2]; i.v. 500 μg/kg) was 6.4 ± 3.6% and the “Maximum % Decrease From Pretreatment Levels, Mean Arterial Blood Pressure” value ([2]; i.v. 500 μg/kg) was 5.7 ± 1.4%.

For `c1coc(Cc2c[nH]cn2)c1` [Example C-5, 4(5)-furan-2-ylmethyl-1H-imidazole], the “Intrinsic Activity Relative to Oxymetazoline, Alpha 2B” value [1] was 1.1, the “Maximum % Decrease From Pretreatment Levels, Heart Rate” value ([2]; i.v. 500 μg/kg) was 7.1 ± 3.9% and the “Maximum % Decrease From Pretreatment Levels, Mean Arterial Blood Pressure” value ([2]; i.v. 500 μg/kg) was 3.9 ± 2.8%.

`Cl.c1nc(CC2CC3CCCC3C2)c[nH]1` (stereo not shown) [Example O, 4(5)-octahydro pentalen-2-ylmethyl-1H-imidazole, hydrochloride] was tested, and the “Intrinsic Activity Relative to Oxymetazoline, Alpha 2B” value [1] was 0.67.

With `O=C1c2cnccc2CCC1Cc1c[nH]cn1` (stereo not shown) [Example P-1, 7-(1H-imidazol-4(5)-ylmethyl)-6,7-dihydro-5H-isoquinoline-8-one, fumarate] the “Intrinsic Activity Relative to Oxymetazoline, Alpha 2B” value [1] was 0.4.

For `c1cc2c(cn1)CC(Cc1c[nH]cn1)CC2` (stereo not shown) [Example P-2, 7-(1H-imidazol-4(5)-ylmethyl)-5,6,7,8-tetrahydro-isoquinoline, fumarate], the “Intrinsic Activity Relative to Oxymetazoline, Alpha 2B” value [1] was 0.4.

For `O=C1/C(=C\c2c[nH]cn2)CCc2ncccc21` [Example Q-1, (Z)-6-(1H-imidazol-4(5)-ylmethylene)-7,8-dihydro-6H-quinolin-5-one], the “Intrinsic Activity Relative to Oxymetazoline, Alpha 2B” value [1] was 0.75.

In the case of `O=C1/C(=C/c2c[nH]cn2)CCc2ncccc21` [Example Q-2, (E)-6-(1H-imidazol-4(5)-ylmethylene)-7,8-dihydro-6H-quinolin-5-one], the “Intrinsic Activity Relative to Oxymetazoline, Alpha 2B” value [1] is reported as 0.87.

With `O=C1c2cccnc2CCC1Cc1c[nH]cn1` (stereo not shown) [Example Q-3, 6-(1H-imidazol-4(5)-ylmethyl)-7,8-dihydro-6H-quinolin-5-one] the “Intrinsic Activity Relative to Oxymetazoline, Alpha 2B” value [1] was 0.9.

With `c1cnc2c(c1)CC(Cc1c[nH]cn1)CC2` (stereo not shown) [Example Q-4, 6-(1H-imidazol-4(5)-ylmethyl)-5,6,7,8-tetrahydro-quinoline, dihydrochloride] the “Intrinsic Activity Relative to Oxymetazoline, Alpha 2B” value [1] was 0.8.

For `O=C1C(Cc2c[nH]cn2)CCC2NCCCC12` (stereo not shown) [Example Q-5, 6-(1H-imidazol-4(5)-yl-methyl)-octahydroquinolin-5-one], the “Intrinsic Activity Relative to Oxymetazoline, Alpha 2B” value [1] was 1.0.

`O=C1/C(=C/c2c[nH]cn2)CCc2nccnc21` [Example R-1, (E)-6-(1H-imidazol-4(5)-ylmethylene)-7,8-dihydro-6H-quinoxalin-5-one] was tested, and the “Intrinsic Activity Relative to Oxymetazoline, Alpha 2B” value [1] was 0.8.

With `O=C1c2ccncc2CCC1Cc1c[nH]cn1` (stereo not shown) [Example R-2, 6-(1H-imidazol-4(5)-ylmethyl)-7,8-dihydro-6H-isoquinolin-5-one, dihydrochloride] the “Intrinsic Activity Relative to Oxymetazoline, Alpha 2B” value [1] was 0.6.

For `c1cc2c(cn1)CCC(Cc1c[nH]cn1)C2` (stereo not shown) [Example R-3, 6-(1H-imidazol-4(5)-ylmethyl)-5,6,7,8-tetrahydro-isoquinoline, fumarate], the “Intrinsic Activity Relative to Oxymetazoline, Alpha 2B” value [1] was 0.6.

`C[C@@]12CCCCC1=C[C@@H](Cc1c[nH]cn1)CC2` [Example S, 4(5)-(4a-methyl-2,3,4,4a,5,6,7,8-octahydro-naphthalen-2-ylmethyl)-1H-imidazole, but-2-enedioic acid salt] was tested, and the “Intrinsic Activity Relative to Oxymetazoline, Alpha 2B” value [1] was “.6”.

For `CC1=CC(Cc2c[nH]cn2)CCC1` (stereo not shown) [Example T-1, 4(5)-(3-methyl-cyclohex-2-enylmethyl)-1H-imidazole, but-2-enedioic acid salt], the “Intrinsic Activity Relative to Oxymetazoline, Alpha 2B” value [1] was 0.8.

`CC1=CC(Cc2c[nH]cn2)CC(C)(C)C1` (stereo not shown) [Example T-2, 4(5)-(3,5,5-trimethyl-cyclohex-2-enylmethyl)-1H-imidazole, but-2-endioic acid salt] was tested, and the “Intrinsic Activity Relative to Oxymetazoline, Alpha 2B” value [1] was 0.7.

In the case of `CC1=CC(Cc2c[nH]cn2)CC1` (stereo not shown) [Example T-3, 4(5)-(3-methylcyclopent-2-enylmethyl)-1H-imidazole, but-2-enedioic acid salt], the “Intrinsic Activity Relative to Oxymetazoline, Alpha 2B” value [1] is reported as 1.08.

In the case of `C1=CC(Cc2c[nH]cn2)CCC1` (stereo not shown) [Example U-1, 4(5)-cyclohex-2-enylmethyl-1H-imidazole, but-2-enedioic acid salt], the “Intrinsic Activity Relative to Oxymetazoline, Alpha 2B” value [1] is reported as 0.6.

In the case of `CC1C=CC(Cc2c[nH]cn2)CC1` (stereo not shown) [Example U-2, 4(5)-(4-methyl-cyclohex-2-enylmethyl)-1H-imidazole, but-2-enedioic acid salt], the “Intrinsic Activity Relative to Oxymetazoline, Alpha 2B” value [1] is reported as 0.6.

With `CC1=C(C)CC(Cc2c[nH]cn2)CC1` (stereo not shown) [Example W-1, 4(5)-(3,4-Dimethyl-cyclohex-3-enylmethyl)-1H-imidazole, but-2-enedioic acid salt] the “Intrinsic Activity Relative to Oxymetazoline, Alpha 2B” value [1] was 0.55.

In the case of `C1=CCC(Cc2c[nH]cn2)CC1` (stereo not shown) [Example W-2, 4(5)-Cyclohex-3-enylmethyl-1H-imidazole, but-2-enedioic acid salt], the “Intrinsic Activity Relative to Oxymetazoline, Alpha 2B” value [1] is reported as 0.6.

`CC1=CCC(Cc2c[nH]cn2)CC1` (stereo not shown) [Example X-1, 4(5)-(4-Methyl-cyclohex-3-enylmethyl)-1H-imidazole, but-2-enedioic acid salt] was tested, and the “Intrinsic Activity Relative to Oxymetazoline, Alpha 2B” value [1] was 0.8.

With `CCC1=CCC(Cc2c[nH]cn2)CC1` (stereo not shown) [Example X-2, 4(5)-(4-Ethyl-cyclohex-3-enylmethyl)-1H-imidazole, but-2-enedioic acid salt] the “Intrinsic Activity Relative to Oxymetazoline, Alpha 2B” value [1] was 0.56.

In the case of `CCCCCC1=CCC(Cc2c[nH]cn2)CC1` (stereo not shown) [Example X-3, 4(5)-(4-Pentyl-cyclohex-3-enylmethyl)-1H-imidazole, but-2-enedioic acid salt], the “Intrinsic Activity Relative to Oxymetazoline, Alpha 2B” value [1] is reported as 0.87.

With `Cc1c(N=C2NCCN2)ccc2c1NC(=O)CO2` [F, 6-(imidazolidin-2-ylideneamino)-5-methyl-4H-benzo[1,4]oxazin-3-one] the “Intrinsic Activity Relative to Oxymetazoline, Alpha 2B” value [1] was 0.9.

With `Cc1ccc(N=C2NCCN2)c2c1NCCO2.Cl` [G, imidazolin-2-ylidene-(5-methyl-3,4-dihydro-2H-benzo[1,4]oxazin-8-yl) amine, hydrogen chloride salt] the “Intrinsic Activity Relative to Oxymetazoline, Alpha 2B” value [1] was 0.87.

With `c1ccc(Sc2c[nH]cn2)cc1` [H, 4(5)-phenylsulfanyl-1H-imidazole] the “Intrinsic Activity Relative to Oxymetazoline, Alpha 2B” value [1] was 0.93.

With `C1=NC(CC2CCc3ccccc3C2)CN1` (stereo not shown) [I, 4(5)-(1,2,3,4-tetrahydronaphthalen-2-ylmethyl)-4,5-dihydro-1H-imidazole, methane sulfonic acid salt] the “Intrinsic Activity Relative to Oxymetazoline, Alpha 2B” value [1] was 0.5.

`CC(c1c[nH]cn1)c1ccco1` (stereo not shown) [L, 4(5)-(1-furan-2-ylethyl)-1H-imidazole] was tested, and the “Intrinsic Activity Relative to Oxymetazoline, Alpha 2B” value [1] was 0.9.

`O=C1CCCCC1Cc1c[nH]cn1` (stereo not shown) [V, 2-(1H-Imidazole-4(5)-ylmethyl)-cyclohexanone, but-2-enedioic acid salt] was tested, and the “Intrinsic Activity Relative to Oxymetazoline, Alpha 2B” value [1] was 0.4.

— patent US6841684B2, “Imidiazoles having reduced side effects” (Allergan, Inc., priority 1997, dated 2005)
